The record followed here is patent publication US20120088808A1, “CRYSTAL FORMS OF SAXAGLIPTIN” (SANDOZ AG, priority 2009, published 2012).

SMILES strings stand for the structures. Structures can show the parent of a compound that is named as a salt.

Type in all cases: physicochemical
The nature of data set [1]: Stability of the crystal form against relative humidity (polymorphic transformation). The conditions noted are these: for relative humidity above which the form transforms to known Dihydrate H2-1: transformation not reversible, hydrochloride. Here is the method:
Infrared spectra (IR) were collected on a MKII Golden Gate™ Single Reflection Diamond ATR (attenuated total reflection) cell with a Bruker Tensor 27 FTIR spectrometer with 4 cm^−1 resolution. To collect a spectrum a spatula tip of a sample was applied to the surface of the diamond in powder form. Then the sample was pressed onto the diamond with a sapphire anvil and the spectrum was recorded. A spectrum of the clean diamond was used as background spectrum. A typical precision of the wavenumber values is in the range of about ±2 cm^−1. Thus, an infrared peak that appears at 1716 cm^−1 can appear between 1714 and 1718 cm^−1 on most infrared spectrometers under standard conditions. A sample was stored at 45-49% relative humidity for 12 hours.

The nature of data set [2]: Moisture sorption isotherm / water content at defined relative humidity, 25° C. The protocol: The moisture sorption isotherm was recorded with a SPS-11 moisture sorption analyzer (MD Mess-technik, Ulm, D). The measurement cycle was started at 0% relative humidity (RH), increased in 10% steps up to 90% RH and in a 5% step up to 95% RH. The equilibrium condition for each step was set to a constant mass ±0.003% over 49 min. The temperature was 25±0.1° C.

Data set [3] can be described thus: Water content by the Karl Fischer method. The protocol: The water content is determined according to the Karl Fischer method.
Data set [4] can be described thus: Thermogravimetric analysis (mass / water loss). Here is the method:
Thermogravimetric analysis was performed with the thermogravimetric system TGA-7 using the Pyris Software for Windows NT (Perkin-Elmer, Norwalk, Conn., USA), 50 μl platinum pans, nitrogen purge gas (sample purge: 20 ml min^−1, balance purge: 40 ml min^−1).

[5] abbreviates: at 40% relative humidity at 25° C.

With `N#C[C@@H]1C[C@@H]2CC2N1C(=O)[C@@H](N)C12CC3CC(CC(O)(C3)C1)C2` (stereo partly drawn) [form I-S, Saxagliptin hydrochloride], in data set [1], the “relative humidity at which the form is stable” value is “below 50 % relative humidity”. In addition, the “relative humidity above which the form transforms to known Dihydrate H2-1” value in data set [1] (listed as Form I-S) was “Above 50 % relative humidity”. For the same compound, the water content entry in data set [2] (at about 50% relative humidity at 25° C., reversible) is on record as “about 1.5%”. For the same compound, in data set [2] (relative humidity at 25° C. lowered to about 0.5%, reversible on exposure to about 50% humidity), the “fate of the water when lowering the relative humidity” value is reported as “lost completely”. In addition, the “water content (Karl Fischer apparatus)” value in data set [3] (crystalline form as obtained in example 1) is recorded as 1.2 % w/w.
As to `N#C[C@@H]1C[C@@H]2CC2N1C(=O)[C@@H](N)C12CC3CC(CC(O)(C3)C1)C2` (stereo partly drawn) [form HT-S, Saxagliptin hydrochloride], in data set [4] (FIG. 6), the “water loss based on thermogravimetric analysis” value is “not more than 0.5 % w/w”.
For the compound `N#C[C@@H]1C[C@@H]2CC2N1C(=O)[C@@H](N)C12CC3CC(CC(O)(C3)C1)C2` (stereo partly drawn) [form HT-IV S, Saxagliptin hydrochloride], the “change in the crystal form (FTIR)” value in data set [1] (after storage at 45-49% relative humidity for 12 hours) was “No change in the crystal form”. In addition, the “Water (KF)” value in data set [3] (after drying in vacuum oven at 50° C. about 10 hours, then about 80° C. for 5 hours) turned out to be 0.7%; in data set [3] (sample stored at 45-49% relative humidity for 12 hours), 1.2%.
Turning to `N#C[C@@H]1C[C@@H]2CC2N1C(=O)[C@@H](N)C12CC3CC(CC(O)(C3)C1)C2` (stereo partly drawn) [form IV-S, Saxagliptin hydrochloride], the “relative humidity above which the form transforms to known Dihydrate H2-1” value in data set [1] is recorded as “above 40 % relative humidity”. The “water content (moisture sorption analysis)” value in data set [2] (at 0% relative humidity, process reversible) is 12.8%. In addition, in data set [2] (setting [5]), the “water content (moisture sorption analysis)” value is 13.1% and the “water corresponding to the water content” value is reported as 2.94 mol of water. Further, the “water corresponding to the TGA mass loss” value in data set [4] (up to 100° C.) is reported as 2.86 mol of water. In data set [4] (up to 100° C., FIG. 11), the “mass loss by thermogravimetric analysis” value is “about 12.8%”.
